Measured values reported in ChEMBL document CHEMBL1201862, “PubChem BioAssay data set” (2004).
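Protocol summary: plate cells (96-well), add compound at 5 concentrations, incubate 48 h, interpolate endpoints linearly. GI50 = concentration required for 50% inhibition of growth.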 The source made the active and inactive calls. No stated cut-off is given here; in the data, active = GI50 up to about 1.1 µM and inactive = higher.

How the values were obtained:
Assay in all cases: NCI anticancer screen, dose series, 48 h
SK-MEL-5 = system: SK-MEL-5
MDA-N = system: MDA-N
786-0 = system: 786-0
EKVX = system: EKVX
NCI-H522 = system: NCI-H522
SF-539 = system: SF-539
IGROV-1 = system: IGROV-1
Malme-3M = system: Malme-3M
OVCAR-4 = system: OVCAR-4
ACHN = system: ACHN
UACC-62 = system: UACC-62
T47D = system: T47D
SW-620 = system: SW-620
DU-145 = system: DU-145
COLO 205 = system: COLO 205
OVCAR-3 = system: OVCAR-3
LOX IMVI = system: LOX IMVI
MDA-MB-231 = system: MDA-MB-231
OVCAR-5 = system: OVCAR-5

Measured: GI50

C=CCn1c2c(c3ccccc3c1=O)C(=O)c1ccccc1-2
inactive: SK-MEL-5 43.8 µM | MDA-N > 100 µM | 786-0 22.4 µM | EKVX > 100 µM | NCI-H522 > 100 µM | SF-539 > 70.6 µM | IGROV-1 > 100 µM | Malme-3M > 100 µM | OVCAR-4 54.8 µM | ACHN 51.9 µM | UACC-62 > 78 µM | T47D > 100 µM | SW-620 73.6 µM | DU-145 > 89.3 µM | COLO 205 > 100 µM | OVCAR-3 > 100 µM | LOX IMVI > 100 µM | MDA-MB-231 > 85.3 µM | OVCAR-5 > 100 µM

C/C(=N\NC(=S)N1CCN(c2ccccn2)CC1)c1cccc2cccnc12
inactive: SK-MEL-5 2.46 µM | MDA-N 4.71 µM | 786-0 4.29 µM | EKVX 3.59 µM | NCI-H522 2.28 µM | SF-539 4.11 µM | IGROV-1 5.79 µM | Malme-3M 4.76 µM | OVCAR-4 4.03 µM | ACHN 4.01 µM | UACC-62 3.53 µM | T47D 3.68 µM | SW-620 4.33 µM | DU-145 3.56 µM | COLO 205 3.02 µM | OVCAR-3 3.44 µM | LOX IMVI 3.59 µM | MDA-MB-231 4.42 µM | OVCAR-5 4.9 µM

CN(C)CCNC(=O)c1cnn(C)c1[N+](=O)[O-]
inactive: SK-MEL-5 44.5 µM | MDA-N 41.6 µM | 786-0 > 100 µM | EKVX > 100 µM | NCI-H522 > 100 µM | SF-539 > 100 µM | IGROV-1 > 100 µM | Malme-3M 18.6 µM | OVCAR-4 76.7 µM | ACHN > 100 µM | UACC-62 52.4 µM | T47D > 100 µM | SW-620 79.6 µM | DU-145 > 100 µM | COLO 205 21.6 µM | OVCAR-3 24.5 µM | LOX IMVI 46.7 µM | MDA-MB-231 > 100 µM | OVCAR-5 > 100 µM

COc1cccc2c1C(=O)C1=C(C2=O)C(O)CC(C)(C)O1 (stereo not drawn)
inactive: SK-MEL-5 14.4 µM | MDA-N 19.5 µM | 786-0 42.4 µM | EKVX 43.1 µM | NCI-H522 26.2 µM | SF-539 37.9 µM | IGROV-1 31.6 µM | Malme-3M 16.6 µM | OVCAR-4 19.3 µM | ACHN 36.1 µM | UACC-62 25.1 µM | T47D 49.8 µM | SW-620 34.1 µM | DU-145 > 100 µM | COLO 205 23.5 µM | OVCAR-3 13.1 µM | LOX IMVI 24.3 µM | MDA-MB-231 25.6 µM | OVCAR-5 58.9 µM

[N-]=[N+]=NCC1OC(n2cnc3c(N)ncnc32)C2OC12 (stereo not drawn)
inactive: SK-MEL-5 > 100 µM | MDA-N > 100 µM | 786-0 > 100 µM | EKVX > 100 µM | NCI-H522 > 100 µM | SF-539 > 100 µM | IGROV-1 > 100 µM | Malme-3M > 100 µM | OVCAR-4 > 100 µM | ACHN > 100 µM | UACC-62 > 100 µM | T47D > 100 µM | SW-620 > 100 µM | DU-145 > 100 µM | COLO 205 > 100 µM | OVCAR-3 > 100 µM | LOX IMVI > 100 µM | MDA-MB-231 > 100 µM | OVCAR-5 > 100 µM

Cc1ccc(C)c(NC(=O)NCc2ccc(Cl)cc2)c1
inactive: SK-MEL-5 > 70.5 µM | MDA-N > 100 µM | 786-0 20.6 µM | EKVX 97.9 µM | NCI-H522 24.9 µM | SF-539 > 100 µM | IGROV-1 41.9 µM | Malme-3M 26.8 µM | OVCAR-4 20.1 µM | ACHN 20.5 µM | UACC-62 > 100 µM | T47D 43.7 µM | SW-620 50.7 µM | DU-145 > 66.7 µM | COLO 205 > 100 µM | OVCAR-3 28.5 µM | LOX IMVI > 100 µM | MDA-MB-231 20 µM | OVCAR-5 56.1 µM

O=C1c2ccccc2C(=O)N1NC1=NCCN1
inactive: SK-MEL-5 > 100 µM | MDA-N > 100 µM | 786-0 > 100 µM | EKVX > 100 µM | NCI-H522 > 100 µM | SF-539 > 100 µM | IGROV-1 > 100 µM | Malme-3M > 100 µM | OVCAR-4 > 100 µM | ACHN > 100 µM | UACC-62 > 100 µM | T47D > 100 µM | SW-620 > 100 µM | DU-145 > 100 µM | COLO 205 > 100 µM | OVCAR-3 > 100 µM | LOX IMVI > 100 µM | MDA-MB-231 > 100 µM | OVCAR-5 > 100 µM
